# Assay results from publication PMC11649784, “Re-design and evaluation of diclofenac-based carborane-substituted prodrugs and their anti-cancer potential” (Scientific Reports, 2024).
# How the values were obtained:
# MC38 cells [1] = test: PI staining of fixed cells, fluorescence microscopy; assay type: cell-based, murine; settings: IC50 concentration, 72 h
# Protocol: For morphological assessment of cell nuclei, MC38 cells were seeded overnight in 2-well chamber slides and then treated with the IC50 concentration of compound 3 for 72 h. At the end of the incubation period, cells were fixed with 4 [drawing 168] PFA for 15 min at RT. Staining of cells was performed with PI solution (0.1 [drawing 169] Triton X-100, 0.5 M EDTA pH 8, 50 μg mL^− 1 RNase, and 50 [drawing 170] mL^− 1 PI - final concentrations in PBS) for 1–2 min at RT. After washing in PBS, the cells were mounted in a fluorescence microscopy medium (Fluoromount- [drawing 171] , eBioscience, San Diego, CA, USA). The slides were analyzed with a ZeissAxio Observer Z1 inverted fluorescence microscope (Carl Zeiss AG, Oberkochen, Germany) at 400 [drawing 172] magnification. For the detection of autophagosomes, AO staining of cells seeded in 2-well chamber slides was applied. […] The dye was then removed, the cells were rinsed with PBS and immediately evaluated via fluorescence microscopy at 400 [drawing 175] magnification using the Leica DM4 B microscope equipped with a DFC7000 T camera (Leica Microsystems CMS GmbH, Wetzlar, Germany).
# [2] = tested on: peritoneal exudate cells (PECs); test: Viability of peritoneal exudate cells; assay type: cell-based, mice; settings: column head not given
# Protocol: The biological study was performed on a murine colon adenocarcinoma cell line (MC38), two human colorectal carcinoma cell lines (HCT116 and HT29), and a human fetal lung fibroblast cell line (MRC-5). All cell lines are commercially available and were obtained from the American Type Culture Collection (ATCC). The human cell lines were kept in HEPES-buffered RPMI-1640 medium supplemented with 10 [drawing 141] heat-inactivated FCS, 2 mM L-glutamine, 0.01 [drawing 142] sodium pyruvate, penicillin (100 units mL^−1), and, streptomycin ( [drawing 143] mL^-1). The MC38 cell line was maintained in DMEM medium additionally supplemented with 1 [drawing 144] non-essential amino acids. Cells were grown at [drawing 145] in a humidified atmosphere with 5 [drawing 146] [drawing 147] . Peritoneal exudate cells (PECs) were isolated from healthy C57BL/6 mice (males, n = 3, 3 months old, weight 22–25 g) by performing an ice-cold PBS peritoneal lavage. Mice were sacrificed by cervical dislocation. Cells were cultivated for 4 h when nonadherent population was removed by washing in PBS, and additionally cultivated overnight in HEPES-buffered RPMI-1640 medium supplemented with 5 [drawing 148] heat-inactivated FCS before treatment with experimental drugs. […]
# After 72 h, cell viability was determined using MTT and CV tests. […] For both viability tests, the absorbance of the developed colors was measured using an automated microplate reader at 570 nm with a reference wavelength of 670 nm. The results were expressed as a percentage of the control values of the untreated cells, which were arbitrarily set at 100 [drawing 160] . IC50 values, defined as 50 [drawing 161] inhibitory concentration, were calculated using a four-parameter logistic function and presented as mean±SD. […] To evaluate the nature of the detected autophagy, a combined treatment with compound 3 and the autophagy inhibitors chloroquine (Chlq) and 3-methyladenine (3-MA) was carried out. […] After 72 h, cell viability was determined by CV assay.
# MC38 cells [3] = test: AnnV-FITC/PI double staining, flow cytometry; assay type: cell-based, murine; settings: IC50 concentration, 72 h
# Protocol: For all flow cytometric analyses, MC38 cells were seeded overnight and then treated with the IC50 concentration of compound 3 for 72 h. The cells were harvested, washed, and stained according to the manufacturer’s instructions for each method. To determine whether the compound induces apoptosis, cells were double stained with AnnV-FITC and PI (15 μg mL^–1) for 15 min at RT in the dark. To detect caspase activity, cells were stained with the FITC-conjugated caspase inhibitor ApoStat for 30 min at [drawing 162] . To detect cell proliferation, MC38 cells were stained with CFSE (1 μM) for 10 min at [drawing 163] prior to seeding and then treated as previously described. To detect intracellular production of Reactive oxygen/nitrogen Species (ROS/RNS), MC38 cells were prestained with DHR 123 (1 [drawing 164] M) for 20 min at [drawing 165] , then seeded and exposed to an IC50 concentration of compound 3. After 72 h incubation, all samples were washed, resuspended in PBS and fluorescence intensity was analyzed using a CytoFLEX [drawing 166] flow cytometer (Beckman Coulter, Pasadena, CA, USA), while the data obtained was evaluated using the [drawing 167] software program.
# MC38 cells [4] = test: MTT viability assay, MC38; assay type: cell-based, murine; settings: 72 h, mean±SD; read-out: IC50 [μM] (n = 3) MC38 MTT
# Protocol: In a preliminary test, the stability of all compounds dissolved in the cell medium (c = 100 μM, T = [drawing 47] ) for 72 h was validated by HPLC (see Supporting Information). Cell lines were incubated with the respective compounds in a concentration range of 1.56–100 μM for 72 h, and cell viability was measured using 3-(4,5-dimethylthiazol-2-yl)-2,5-diphenyltetrazolium bromide (MTT) and crystal violet (CV) assays. […] As MTT tests gave inconsistent results, possibly due to interference of the compound with mitochondrial respiration, for the further evaluation only the CV results are considered[97],[98].
# The biological study was performed on a murine colon adenocarcinoma cell line (MC38), two human colorectal carcinoma cell lines (HCT116 and HT29), and a human fetal lung fibroblast cell line (MRC-5). All cell lines are commercially available and were obtained from the American Type Culture Collection (ATCC). The human cell lines were kept in HEPES-buffered RPMI-1640 medium supplemented with 10 [drawing 141] heat-inactivated FCS, 2 mM L-glutamine, 0.01 [drawing 142] sodium pyruvate, penicillin (100 units mL^−1), and, streptomycin ( [drawing 143] mL^-1). The MC38 cell line was maintained in DMEM medium additionally supplemented with 1 [drawing 144] non-essential amino acids. Cells were grown at [drawing 145] in a humidified atmosphere with 5 [drawing 146] [drawing 147] . Peritoneal exudate cells (PECs) were isolated from healthy C57BL/6 mice (males, n = 3, 3 months old, weight 22–25 g) by performing an ice-cold PBS peritoneal lavage. Mice were sacrificed by cervical dislocation. Cells were cultivated for 4 h when nonadherent population was removed by washing in PBS, and additionally cultivated overnight in HEPES-buffered RPMI-1640 medium supplemented with 5 [drawing 148] heat-inactivated FCS before treatment with experimental drugs. Animal handling and protocol for isolation of PECs were performed according to European Union rules, and the ARRIVE guidelines 2.0.
# For the viability tests, MC38, HCT116, and HT29 cells were seeded in 96-well plates at a density of 2 [drawing 149] 103, 5 [drawing 150] 103, and 6 [drawing 151] 10^3 cells/well, respectively. To determine whether the drug affected the viability of healthy, non-malignant cells, MRC-5 and PECs were seeded in 96-well plates at a density of 8 [drawing 152] 103 and 2 [drawing 153] 10^5 cells/well, respectively. For the flow cytometric analyses, MC38 cells were seeded in 6-well plates at 5 [drawing 154] 10^4 cells/well. For morphological assessment of nuclei and the detection of autophagy, MC38 cells were seeded in 2-well chamber slides at 1.5 [drawing 155] 10^4 cells/well.
# After 72 h, cell viability was determined using MTT and CV tests. First, the supernatant from the wells was discarded and the cells were incubated with an MTT solution (0.5 mg mL^−1). After half an hour, the purple formazan crystals formed were dissolved in DMSO. For CV staining of the cells, the cells were fixed with 4 [drawing 157] PFA for 10 min and then stained with a 0.02 [drawing 158] CV solution for 15 min, all at room temperature (RT). The cells were then washed with tap water, air-dried and the dye was dissolved in 33 [drawing 159] acetic acid. For both viability tests, the absorbance of the developed colors was measured using an automated microplate reader at 570 nm with a reference wavelength of 670 nm. The results were expressed as a percentage of the control values of the untreated cells, which were arbitrarily set at 100 [drawing 160] . IC50 values, defined as 50 [drawing 161] inhibitory concentration, were calculated using a four-parameter logistic function and presented as mean±SD. All biological experiments were performed in triplicates. To evaluate the nature of the detected autophagy, a combined treatment with compound 3 and the autophagy inhibitors chloroquine (Chlq) and 3-methyladenine (3-MA) was carried out. […] After 72 h, cell viability was determined by CV assay.
substance,measurement,setting,value
"1-[2-(7,8-dicarba-nido-undecaborate)]- [drawing 126] H-indolium-2-amine [compound 3]",nuclear morphology (PI staining),MC38 cells [1],moderate involvement of apoptotic cells
same,"Selectivity index (IC50 value of primary vs. cancer cells), PEC, second cancer cell line column",[2]; presumably HCT116,2.17
same,"Selectivity index (IC50 value of primary vs. cancer cells), PEC, third cancer cell line column",[2]; presumably HT29,1.42
same,"Selectivity index (IC50 value of primary vs. cancer cells), PEC, first cancer cell line column",[2]; presumably MC38,2.63
same,"apoptosis (AnnV-FITC/PI), in words",MC38 cells [3],moderate apoptotic cell accumulation
same,IC50,MC38 cells [4],7.9 ± 0.2 µM
